Laboratory results from patent US20040242537A1, “Acetylation method of chitosan” (priority 2001, published 2004).

Conditions: pH 7

chitosan
solubility according to pH: rapid decrease in solubility
